Measured values as given in ChEMBL document CHEMBL6092127, “Recent advancement in developing small molecular inhibitors targeting key kinase pathways against triple-negative breast cancer” (Bioorg Med Chem, 2024).
Blank lines part the entries; values can stand above or below the compound they belong to.

Experiments:
[1] = Antiproliferative activity against human EFM-192A cells assessed as reduction in cell growth measured for 24 hrs by MTT assay; assay type: functional, cell-based
[2] = Growth inhibition of human Triple-negative breast cancer cell incubated for 24 hrs by MTT assay; assay type: functional
MCF7 = assay: Antiproliferative activity against human MCF7 cells assessed as reduction in cell viability by MTT assay; assay type: functional, cell-based
MDA-MB-231 = assay: Antiproliferative activity against human MDA-MB-231 cells assessed as reduction in cell viability by MTT assay; assay type: functional, cell-based
[3] = biological target: Serine/threonine-protein kinase mTOR (Homo sapiens, UniProt P42345); assay: Inhibition of mTOR (unknown origin)
[4] = biological target: Phosphatidylinositol 4,5-bisphosphate 3-kinase catalytic subunit alpha isoform (Homo sapiens, UniProt P42336); assay: Inhibition of PI3Kalpha (unknown origin)
Phosphatidylinositol 4,5-bisphosphate 3-kinase catalytic subunit alpha isoform, sequence (P42336 whole entry, canonical isoform): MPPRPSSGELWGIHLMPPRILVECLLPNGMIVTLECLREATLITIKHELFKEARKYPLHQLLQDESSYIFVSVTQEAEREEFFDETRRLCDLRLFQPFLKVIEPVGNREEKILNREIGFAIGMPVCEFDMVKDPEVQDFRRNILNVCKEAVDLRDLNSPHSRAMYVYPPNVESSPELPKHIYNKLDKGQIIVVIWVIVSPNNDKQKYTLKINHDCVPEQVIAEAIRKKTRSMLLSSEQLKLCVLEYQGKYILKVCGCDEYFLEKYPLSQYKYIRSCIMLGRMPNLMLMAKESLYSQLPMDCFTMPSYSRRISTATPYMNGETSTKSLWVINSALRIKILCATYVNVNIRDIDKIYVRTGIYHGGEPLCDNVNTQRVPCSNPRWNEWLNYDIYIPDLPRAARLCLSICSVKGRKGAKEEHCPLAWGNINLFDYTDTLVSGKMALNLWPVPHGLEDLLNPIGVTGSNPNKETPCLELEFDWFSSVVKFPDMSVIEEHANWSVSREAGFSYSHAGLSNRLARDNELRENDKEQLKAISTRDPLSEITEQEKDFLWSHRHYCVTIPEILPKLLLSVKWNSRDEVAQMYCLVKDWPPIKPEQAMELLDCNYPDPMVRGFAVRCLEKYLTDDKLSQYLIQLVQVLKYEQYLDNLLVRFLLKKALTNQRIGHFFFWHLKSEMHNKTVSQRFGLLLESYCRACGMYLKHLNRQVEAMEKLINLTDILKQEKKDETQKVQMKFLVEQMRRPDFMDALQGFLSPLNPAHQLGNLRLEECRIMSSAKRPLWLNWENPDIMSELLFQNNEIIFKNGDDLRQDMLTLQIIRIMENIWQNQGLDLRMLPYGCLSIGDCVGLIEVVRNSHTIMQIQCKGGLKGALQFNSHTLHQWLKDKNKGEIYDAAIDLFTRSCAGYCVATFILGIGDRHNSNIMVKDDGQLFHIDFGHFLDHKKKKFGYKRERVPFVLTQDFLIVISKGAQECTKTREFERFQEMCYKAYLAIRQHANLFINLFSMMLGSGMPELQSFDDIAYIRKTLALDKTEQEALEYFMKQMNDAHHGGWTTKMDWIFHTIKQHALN

Structure (SMILES): COc1ccc(CCc2cc(OC)c(OC)c(OC)c2)cc1O
- IC50 [1]: 0.0786 µM

Structure (SMILES): N#Cc1ccc(CN2C(=O)c3cc4ccccc4n3C[C@H]2C(=O)NCc2ccccc2)cc1
- GI50 [2]: 2.96 µM

- IC50 (MCF7): 0.002 µM
- IC50 (MDA-MB-231): 0.002 µM
- IC50 [3]: 0.0608 µM
- IC50 [4]: 0.291 µM
Structure (SMILES): CS(=O)(=O)N1CCN(Cc2ccc(-c3nc(-c4ccc(NC(=O)Nc5cccnc5)cc4)nc(N4CCOCC4)n3)s2)CC1
